Laboratory results: patent US10851102B2, “Imidazole and triazole containing bicyclic compounds as JAK inhibitors” (THERAVANCE BIOPHARMA R&D IP, LLC, priority 2019, dated 2020)

How the values were obtained:
[1] = Colon and plasma mouse pharmacokinetics; format: in vivo; conditions: mouse; ratio of colon AUC to plasma AUC; male Balb/c mice, 10 mg/kg PO
Description: Assay 6: Colon and Plasma Mouse Pharmacokinetics
6 male Balb/c mice were administered 10 mg/kg of compound in 1% HPMC+0.1% Tween-80 by PO administration. At 0.5, 2 and 6 hours after dose administration, animals were anesthetized, and terminal blood samples were collected by cardiac puncture, followed by collection of colon contents and colon tissue.
Blood samples were collected into K2EDTA and stored on wet ice until processed to plasma by centrifugation (12,000 rpm at 4° C.). Plasma samples were transferred to cluster tubes and placed on dry ice prior to freezer storage. The colon contents from each animal were collected at each terminal blood collection time point. The colon tissues were flushed with saline and patted dry. The colon and colon content tissues were homogenized using sterile water containing 0.1% formic acid 9:1 (water:tissue, v/w). The homogenized tissues and colon contents were transferred to cluster tubes and placed on dry ice prior to freezer storage. All samples were analyzed using LC/MS/MS against analytical standards.
The composite pharmacokinetic parameters of the compounds were determined by non-compartmental analysis using Phoenix WinNonlin Version 6 (Certara, St. Louis, Mo.) and using mean values from 2 animals/time point. For plasma concentrations below the quantification limit (BQL), the lowest concentration measurable or the BLOQ (below limit of quantification) was used.
A colon to plasma ratio was determined as the ratio of the colon AUC to the plasma AUC.

Tyk2 = Tyk2 (Homo sapiens (Human), UniProt P29597); assay: Biochemical JAK and Tyk2 kinase assays (LanthaScreen): Tyk2; conditions: 1 h pre-incubation, ATP at Km; pIC50 converted to pKi by Cheng-Prusoff
Sequence of Tyk2 (P29597 whole entry): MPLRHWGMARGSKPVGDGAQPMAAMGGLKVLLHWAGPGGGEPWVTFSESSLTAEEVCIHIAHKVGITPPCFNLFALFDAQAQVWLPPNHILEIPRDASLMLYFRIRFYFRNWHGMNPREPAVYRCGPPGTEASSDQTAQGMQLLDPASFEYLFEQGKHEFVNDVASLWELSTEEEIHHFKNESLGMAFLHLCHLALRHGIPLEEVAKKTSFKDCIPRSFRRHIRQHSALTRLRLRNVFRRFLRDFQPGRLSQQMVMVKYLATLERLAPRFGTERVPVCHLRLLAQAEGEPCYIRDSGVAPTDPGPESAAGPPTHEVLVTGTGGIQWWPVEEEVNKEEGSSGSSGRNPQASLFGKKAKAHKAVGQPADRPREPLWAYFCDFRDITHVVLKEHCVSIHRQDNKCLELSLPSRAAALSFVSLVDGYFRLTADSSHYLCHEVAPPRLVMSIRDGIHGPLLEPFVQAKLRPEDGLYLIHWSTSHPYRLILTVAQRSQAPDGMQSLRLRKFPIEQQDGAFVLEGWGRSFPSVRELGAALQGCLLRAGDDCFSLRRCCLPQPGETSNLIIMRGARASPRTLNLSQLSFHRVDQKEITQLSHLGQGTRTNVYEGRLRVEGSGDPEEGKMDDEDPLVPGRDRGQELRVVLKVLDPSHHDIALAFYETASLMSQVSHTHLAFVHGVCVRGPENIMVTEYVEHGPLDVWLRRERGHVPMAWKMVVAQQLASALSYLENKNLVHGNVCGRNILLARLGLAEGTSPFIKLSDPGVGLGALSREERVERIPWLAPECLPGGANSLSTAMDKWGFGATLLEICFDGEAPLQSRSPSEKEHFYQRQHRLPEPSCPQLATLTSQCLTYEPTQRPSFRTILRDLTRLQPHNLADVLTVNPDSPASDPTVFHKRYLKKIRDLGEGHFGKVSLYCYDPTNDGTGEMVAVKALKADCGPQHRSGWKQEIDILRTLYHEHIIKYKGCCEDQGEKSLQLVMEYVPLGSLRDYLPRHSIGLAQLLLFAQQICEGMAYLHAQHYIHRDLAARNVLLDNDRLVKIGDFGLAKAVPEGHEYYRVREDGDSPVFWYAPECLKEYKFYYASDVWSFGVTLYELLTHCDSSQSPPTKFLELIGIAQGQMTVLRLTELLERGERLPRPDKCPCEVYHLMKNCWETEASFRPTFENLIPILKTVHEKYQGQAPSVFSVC
Summary of the method: (§1)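 LanthaScreen format using GST-tagged JAK enzymes, 1 h compound preincubation and 1 h ATP-initiated reaction at ambient temperature, in pH 7.5 HEPES buffer with 1% DMSO. Values are Cheng-Prusoff pKi.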

JAK2 = JAK2 (Homo sapiens (Human), UniProt O60674); assay: Biochemical JAK and Tyk2 kinase assays (LanthaScreen): JAK2; conditions: 1 h pre-incubation, ATP at Km; pIC50 converted to pKi by Cheng-Prusoff
Sequence of JAK2 (O60674 whole entry): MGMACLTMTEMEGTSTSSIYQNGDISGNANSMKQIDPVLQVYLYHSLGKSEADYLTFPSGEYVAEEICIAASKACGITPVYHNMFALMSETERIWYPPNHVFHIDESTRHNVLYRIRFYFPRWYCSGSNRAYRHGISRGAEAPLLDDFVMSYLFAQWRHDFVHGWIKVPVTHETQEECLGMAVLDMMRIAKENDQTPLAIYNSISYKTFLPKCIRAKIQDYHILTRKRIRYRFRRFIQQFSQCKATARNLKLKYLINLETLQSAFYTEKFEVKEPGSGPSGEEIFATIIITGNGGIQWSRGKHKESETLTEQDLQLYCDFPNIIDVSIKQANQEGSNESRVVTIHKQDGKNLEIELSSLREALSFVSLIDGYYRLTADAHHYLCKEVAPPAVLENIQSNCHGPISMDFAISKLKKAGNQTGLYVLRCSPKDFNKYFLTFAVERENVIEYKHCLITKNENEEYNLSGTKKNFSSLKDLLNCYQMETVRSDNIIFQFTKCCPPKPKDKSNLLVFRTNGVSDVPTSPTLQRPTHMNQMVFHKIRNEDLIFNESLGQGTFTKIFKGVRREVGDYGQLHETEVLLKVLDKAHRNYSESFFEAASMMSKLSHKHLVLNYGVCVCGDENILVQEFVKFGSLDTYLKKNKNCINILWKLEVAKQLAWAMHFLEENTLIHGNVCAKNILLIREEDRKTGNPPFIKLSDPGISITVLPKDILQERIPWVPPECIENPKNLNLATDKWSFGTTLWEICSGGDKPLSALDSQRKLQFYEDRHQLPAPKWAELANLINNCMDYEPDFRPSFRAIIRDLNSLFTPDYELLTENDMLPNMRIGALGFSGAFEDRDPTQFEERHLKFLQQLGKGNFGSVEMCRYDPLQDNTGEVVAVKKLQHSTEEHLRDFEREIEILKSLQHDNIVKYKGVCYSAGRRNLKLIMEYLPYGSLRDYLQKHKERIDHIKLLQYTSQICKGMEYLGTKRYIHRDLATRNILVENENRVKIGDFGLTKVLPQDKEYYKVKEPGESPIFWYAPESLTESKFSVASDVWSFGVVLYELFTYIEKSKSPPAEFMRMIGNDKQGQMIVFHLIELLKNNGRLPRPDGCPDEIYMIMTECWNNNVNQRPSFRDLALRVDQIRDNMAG
Summary of the method: as §1

Caco-2 cell monolayers = assay: Caco-2 permeation assay; format: in vitro ADME, human; conditions: 5 μM, A to B, + Verapamil 25 μM, 120 minutes
From the text: Assay 5: Caco-2 Permeation Assay

JAK3 = JAK3 (Homo sapiens (Human), UniProt P52333); assay: Biochemical JAK and Tyk2 kinase assays (LanthaScreen): JAK3; conditions: for Ki: 1 h pre-incubation, ATP at Km, pIC50 converted to pKi by Cheng-Prusoff, read-out: JAK 3 (pKi) (converted); for JAK3 (pKi)-JAK1 (pKi): difference of pKi values, selectivity JAK3 over JAK1
Sequence of JAK3 (P52333 whole entry): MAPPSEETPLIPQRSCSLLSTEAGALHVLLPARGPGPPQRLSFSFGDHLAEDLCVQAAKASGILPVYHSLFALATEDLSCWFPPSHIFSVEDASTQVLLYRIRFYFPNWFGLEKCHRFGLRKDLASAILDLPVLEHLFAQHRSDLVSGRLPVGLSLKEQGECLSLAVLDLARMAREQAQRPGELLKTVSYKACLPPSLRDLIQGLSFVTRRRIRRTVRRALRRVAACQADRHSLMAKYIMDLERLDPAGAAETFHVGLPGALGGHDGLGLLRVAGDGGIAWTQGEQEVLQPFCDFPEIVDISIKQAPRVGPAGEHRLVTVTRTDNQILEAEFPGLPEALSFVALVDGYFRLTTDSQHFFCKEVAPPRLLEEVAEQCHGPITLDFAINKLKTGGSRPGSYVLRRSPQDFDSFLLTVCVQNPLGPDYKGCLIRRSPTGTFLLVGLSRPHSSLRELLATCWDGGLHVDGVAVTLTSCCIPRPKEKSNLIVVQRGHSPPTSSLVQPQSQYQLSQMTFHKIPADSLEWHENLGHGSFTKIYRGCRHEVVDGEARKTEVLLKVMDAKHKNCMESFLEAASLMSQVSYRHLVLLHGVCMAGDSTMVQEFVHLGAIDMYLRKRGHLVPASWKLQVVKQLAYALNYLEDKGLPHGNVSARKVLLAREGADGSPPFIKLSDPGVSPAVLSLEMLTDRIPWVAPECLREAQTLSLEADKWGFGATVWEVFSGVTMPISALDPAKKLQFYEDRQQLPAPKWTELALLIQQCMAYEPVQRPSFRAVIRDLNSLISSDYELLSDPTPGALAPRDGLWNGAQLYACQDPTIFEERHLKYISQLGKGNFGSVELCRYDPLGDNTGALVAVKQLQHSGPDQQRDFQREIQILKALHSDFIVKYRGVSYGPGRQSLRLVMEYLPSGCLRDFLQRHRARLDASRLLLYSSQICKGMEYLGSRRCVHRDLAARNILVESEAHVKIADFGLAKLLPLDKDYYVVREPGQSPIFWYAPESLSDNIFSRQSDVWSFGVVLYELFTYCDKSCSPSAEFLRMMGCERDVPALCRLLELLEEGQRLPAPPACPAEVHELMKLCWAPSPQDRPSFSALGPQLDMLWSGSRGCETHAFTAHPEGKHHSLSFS
Summary of the method: as §1

[2] = test system: IL-2 stimulated pSTAT5 in Tall-1 T cells (JAK3); assay: Cellular JAK3 potency assay: inhibition of IL-2 stimulated pSTAT5 in Tall-1 T cells; format: cell-based; conditions: IL-2 300 ng/ml, pSTAT5 AlphaLisa, Tall-1 human T cell line; read-out: Tall-1 (pIC50) (converted)
Summary of the method: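 Human Tall-1 T cells (45,000/well) preincubated with compound 1 h at 37 °C, then stimulated with IL-2 (final 300 ng/ml) for 30 min. Lysates read for pSTAT5 (Tyr694/699) by AlphaLISA luminescence. IC50 from signal-versus-concentration curves, reported as pIC50 (mean±SD).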

JAK1 = JAK1 (Homo sapiens (Human), UniProt P23458); assay: Biochemical JAK and Tyk2 kinase assays (LanthaScreen): JAK1; conditions: 1 h pre-incubation, ATP at Km; pIC50 converted to pKi by Cheng-Prusoff
Sequence of JAK1 (P23458 whole entry): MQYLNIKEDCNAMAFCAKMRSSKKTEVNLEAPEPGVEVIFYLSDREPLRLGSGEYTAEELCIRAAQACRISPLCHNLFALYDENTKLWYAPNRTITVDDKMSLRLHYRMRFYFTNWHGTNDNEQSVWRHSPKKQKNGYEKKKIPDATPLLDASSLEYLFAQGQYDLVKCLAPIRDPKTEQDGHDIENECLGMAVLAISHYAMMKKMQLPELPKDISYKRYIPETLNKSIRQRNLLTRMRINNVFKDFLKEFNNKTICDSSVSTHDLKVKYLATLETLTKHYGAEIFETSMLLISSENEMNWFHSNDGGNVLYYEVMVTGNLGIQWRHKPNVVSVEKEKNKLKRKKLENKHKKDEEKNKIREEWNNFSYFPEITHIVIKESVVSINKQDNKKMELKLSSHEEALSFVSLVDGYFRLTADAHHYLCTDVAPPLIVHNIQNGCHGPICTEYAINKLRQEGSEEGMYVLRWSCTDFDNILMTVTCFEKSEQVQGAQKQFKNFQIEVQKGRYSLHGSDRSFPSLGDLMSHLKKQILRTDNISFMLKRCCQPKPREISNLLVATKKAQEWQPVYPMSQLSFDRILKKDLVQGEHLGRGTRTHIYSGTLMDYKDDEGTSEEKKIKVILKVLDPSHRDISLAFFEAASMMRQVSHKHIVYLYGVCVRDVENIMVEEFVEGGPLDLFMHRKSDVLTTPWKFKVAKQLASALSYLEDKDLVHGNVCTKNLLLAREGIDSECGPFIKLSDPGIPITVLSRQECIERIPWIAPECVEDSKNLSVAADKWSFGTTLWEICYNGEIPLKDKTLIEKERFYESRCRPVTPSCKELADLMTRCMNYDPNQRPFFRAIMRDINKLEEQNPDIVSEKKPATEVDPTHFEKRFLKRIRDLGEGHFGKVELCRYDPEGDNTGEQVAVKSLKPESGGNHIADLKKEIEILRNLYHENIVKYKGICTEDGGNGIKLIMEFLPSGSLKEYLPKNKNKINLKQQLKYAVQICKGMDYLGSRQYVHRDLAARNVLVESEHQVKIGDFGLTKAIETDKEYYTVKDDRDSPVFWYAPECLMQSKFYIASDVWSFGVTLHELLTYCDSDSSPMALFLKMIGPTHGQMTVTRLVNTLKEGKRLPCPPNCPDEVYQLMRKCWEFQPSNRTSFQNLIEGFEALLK
Summary of the method: as §1

C=CC(=O)N1CC(COc2cc(-c3cc(F)c(O)cc3CC)cn3cncc23)C1 [Example 13, 1-(3-(((6-(2-ethyl-5-fluoro-4-hydroxyphenyl)imidazo[1,5-a]pyridin-8-yl)oxy)methyl)azetidin-1-yl)prop-2-en-1-one]
Kp [1]: > 200 | Tyk 2 (pKi) (Tyk2): E (E represents a pKi value of 7 or below (Ki of 100 nM or above)) | JAK 2 (pKi) (JAK2): E (E represents a pKi value of 7 or below (Ki of 100 nM or above)) | Caco Kp 10^−6 cm/sec (Caco-2 cell monolayers): A (A represents a value below 5×10^−6 cm/sec) | Ki (JAK3): 0.1 to 1 nM | JAK3 (pKi)-JAK1 (pKi) (JAK3): A (A represents a value of 3 or above) | IC50 [2]: ≤ 31.6 nM | JAK 1 (pKi) (JAK1): E (E represents a pKi value of 7 or below (Ki of 100 nM or above))

C=CC(=O)N1CC(COc2cc(-c3ccc(O)c(Cl)c3)cn3cncc23)C1 [Example 12, 1-(3-(((6-(3-chloro-4-hydroxyphenyl)imidazo[1,5-a]pyridin-8-yl)oxy)methyl)azetidin-1-yl)prop-2-en-1-one]
Kp [1]: > 200 | Tyk 2 (pKi) (Tyk2): E (E represents a pKi value of 7 or below (Ki of 100 nM or above)) | JAK 2 (pKi) (JAK2): E (E represents a pKi value of 7 or below (Ki of 100 nM or above)) | Caco Kp 10^−6 cm/sec (Caco-2 cell monolayers): A (A represents a value below 5×10^−6 cm/sec) | Ki (JAK3): 0.1 to 1 nM | JAK3 (pKi)-JAK1 (pKi) (JAK3): A (A represents a value of 3 or above) | IC50 [2]: 31.6 to 200 nM | JAK 1 (pKi) (JAK1): E (E represents a pKi value of 7 or below (Ki of 100 nM or above))
